ChEMBL document CHEMBL4507280 (2021)

Experiments:
[1] = biological target: Cyclin-dependent kinase 17 (Homo sapiens) (UniProt Q00537); details: Compound concentration 1000.0 nM
[2] = system: Mast/stem cell growth factor receptor Kit (Homo sapiens), P10721 [D816V]; details: Compound concentration 1000.0 nM
[3] = biological target: Serine/threonine-protein kinase SIK2 (Homo sapiens) (UniProt Q9H0K1); details: Compound concentration 1000.0 nM
[4] = biological target: Activin receptor type-2A (Homo sapiens) (UniProt P27037); details: Compound concentration 1000.0 nM
[5] = biological target: Phosphatidylinositol 4,5-bisphosphate 3-kinase catalytic subunit alpha isoform (Homo sapiens) (UniProt P42336); details: Compound concentration 1000.0 nM
[6] = biological target: Mitogen-activated protein kinase kinase kinase 12 (Homo sapiens) (UniProt Q12852); details: Compound concentration 1000.0 nM
[7] = biological target: Casein kinase I isoform alpha (Homo sapiens) (UniProt P48729); details: Compound concentration 1000.0 nM
[8] = biological target: Dual specificity testis-specific protein kinase 1 (Homo sapiens) (UniProt Q15569); details: Compound concentration 1000.0 nM
[9] = biological target: Receptor tyrosine-protein kinase erbB-2 (Homo sapiens) (UniProt P04626); details: Compound concentration 1000.0 nM
[10] = system: Epidermal growth factor receptor (Homo sapiens), P00533 [UNDEFINED MUTATION]; details: Compound concentration 1000.0 nM
[11] = system: ALK tyrosine kinase receptor (Homo sapiens), Q9UM73 [L1196M]; details: Compound concentration 1000.0 nM
[12] = biological target: Vascular endothelial growth factor receptor 1 (Homo sapiens) (UniProt P17948); details: Compound concentration 1000.0 nM
[13] = biological target: Phosphatidylinositol 4-kinase beta (Homo sapiens) (UniProt Q9UBF8); details: Compound concentration 1000.0 nM
[14] = biological target: Tyrosine-protein kinase ABL2 (Homo sapiens) (UniProt P42684); details: Compound concentration 1000.0 nM
[15] = biological target: Mitogen-activated protein kinase 11 (Homo sapiens) (UniProt Q15759); details: Compound concentration 1000.0 nM
[16] = biological target: Mitogen-activated protein kinase kinase kinase kinase 5 (Homo sapiens) (UniProt Q9Y4K4); details: Compound concentration 1000.0 nM
[17] = system: Epidermal growth factor receptor (Homo sapiens), P00533 [G719S]; details: Compound concentration 1000.0 nM
[18] = biological target: Mitogen-activated protein kinase kinase kinase 13 (Homo sapiens) (UniProt O43283); details: Compound concentration 1000.0 nM
[19] = biological target: Mitogen-activated protein kinase kinase kinase 10 (Homo sapiens) (UniProt Q02779); details: Compound concentration 1000.0 nM
[20] = biological target: Phosphatidylinositol 5-phosphate 4-kinase type-2 gamma (Homo sapiens) (UniProt Q8TBX8); details: Compound concentration 1000.0 nM
[21] = system: Epidermal growth factor receptor (Homo sapiens), P00533 [G719C]; details: Compound concentration 1000.0 nM
[22] = biological target: Fibroblast growth factor receptor 3 (Homo sapiens) (UniProt P22607); details: Compound concentration 1000.0 nM
[23] = biological target: Insulin receptor-related protein (Homo sapiens) (UniProt P14616); details: Compound concentration 1000.0 nM
[24] = biological target: Mitogen-activated protein kinase 13 (Homo sapiens) (UniProt O15264); details: Compound concentration 1000.0 nM
[25] = biological target: Serine/threonine-protein kinase WNK4 (Homo sapiens) (UniProt Q96J92); details: Compound concentration 1000.0 nM
[26] = biological target: Calcium/calmodulin-dependent protein kinase type 1D (Homo sapiens) (UniProt Q8IU85); details: Compound concentration 1000.0 nM
[27] = biological target: Casein kinase I isoform gamma-3 (Homo sapiens) (UniProt Q9Y6M4); details: Compound concentration 1000.0 nM
[28] = system: Mast/stem cell growth factor receptor Kit (Homo sapiens), P10721 [A829P]; details: Compound concentration 1000.0 nM
[29] = biological target: Ribosomal protein S6 kinase alpha-2 (Homo sapiens) (UniProt Q15349); details: Compound concentration 1000.0 nM
[30] = biological target: Tyrosine-protein kinase JAK1 (Homo sapiens) (UniProt P23458); details: Compound concentration 1000.0 nM
[31] = biological target: Myosin light chain kinase 2, skeletal/cardiac muscle (Homo sapiens) (UniProt Q9H1R3); details: Compound concentration 1000.0 nM
[32] = biological target: Cyclin-dependent kinase-like 5 (Homo sapiens) (UniProt O76039); details: Compound concentration 1000.0 nM
[33] = biological target: Histamine H3 receptor (Homo sapiens) (UniProt Q9Y5N1); details: Compound concentration 10.0 uM
[34] = biological target: Dual specificity tyrosine-phosphorylation-regulated kinase 1A (Homo sapiens) (UniProt Q13627); details: Compound concentration 1000.0 nM
[35] = biological target: Ephrin type-B receptor 3 (Homo sapiens) (UniProt P54753); details: Compound concentration 1000.0 nM
[36] = biological target: Interleukin-1 receptor-associated kinase 3 (Homo sapiens) (UniProt Q9Y616); details: Compound concentration 1000.0 nM
[37] = biological target: Serine/threonine-protein kinase 16 (Homo sapiens) (UniProt O75716); details: Compound concentration 1000.0 nM
[38] = biological target: Serine/threonine-protein kinase 3 (Homo sapiens) (UniProt Q13188); details: Compound concentration 1000.0 nM
[39] = system: Mast/stem cell growth factor receptor Kit (Homo sapiens), P10721 [V559D,V654A]; details: Compound concentration 1000.0 nM
[40] = biological target: Serine/threonine-protein kinase 17A (Homo sapiens) (UniProt Q9UEE5); details: Compound concentration 1000.0 nM
[41] = biological target: Phosphatidylinositol 4,5-bisphosphate 3-kinase catalytic subunit beta isoform (Homo sapiens) (UniProt P42338); details: Compound concentration 1000.0 nM
[42] = biological target: Tyrosine-protein kinase Fyn (Homo sapiens) (UniProt P06241); details: Compound concentration 1000.0 nM
[43] = biological target: Mitogen-activated protein kinase kinase kinase 4 (Homo sapiens) (UniProt Q9Y6R4); details: Compound concentration 1000.0 nM
[44] = biological target: Serine/threonine-protein kinase pim-1 (Homo sapiens) (UniProt P11309); details: Compound concentration 1000.0 nM
[45] = biological target: Fibroblast growth factor receptor 2 (Homo sapiens) (UniProt P21802); details: Compound concentration 1000.0 nM

Chain of Mitogen-activated protein kinase kinase kinase 13 (Homo sapiens) (O43283 whole entry): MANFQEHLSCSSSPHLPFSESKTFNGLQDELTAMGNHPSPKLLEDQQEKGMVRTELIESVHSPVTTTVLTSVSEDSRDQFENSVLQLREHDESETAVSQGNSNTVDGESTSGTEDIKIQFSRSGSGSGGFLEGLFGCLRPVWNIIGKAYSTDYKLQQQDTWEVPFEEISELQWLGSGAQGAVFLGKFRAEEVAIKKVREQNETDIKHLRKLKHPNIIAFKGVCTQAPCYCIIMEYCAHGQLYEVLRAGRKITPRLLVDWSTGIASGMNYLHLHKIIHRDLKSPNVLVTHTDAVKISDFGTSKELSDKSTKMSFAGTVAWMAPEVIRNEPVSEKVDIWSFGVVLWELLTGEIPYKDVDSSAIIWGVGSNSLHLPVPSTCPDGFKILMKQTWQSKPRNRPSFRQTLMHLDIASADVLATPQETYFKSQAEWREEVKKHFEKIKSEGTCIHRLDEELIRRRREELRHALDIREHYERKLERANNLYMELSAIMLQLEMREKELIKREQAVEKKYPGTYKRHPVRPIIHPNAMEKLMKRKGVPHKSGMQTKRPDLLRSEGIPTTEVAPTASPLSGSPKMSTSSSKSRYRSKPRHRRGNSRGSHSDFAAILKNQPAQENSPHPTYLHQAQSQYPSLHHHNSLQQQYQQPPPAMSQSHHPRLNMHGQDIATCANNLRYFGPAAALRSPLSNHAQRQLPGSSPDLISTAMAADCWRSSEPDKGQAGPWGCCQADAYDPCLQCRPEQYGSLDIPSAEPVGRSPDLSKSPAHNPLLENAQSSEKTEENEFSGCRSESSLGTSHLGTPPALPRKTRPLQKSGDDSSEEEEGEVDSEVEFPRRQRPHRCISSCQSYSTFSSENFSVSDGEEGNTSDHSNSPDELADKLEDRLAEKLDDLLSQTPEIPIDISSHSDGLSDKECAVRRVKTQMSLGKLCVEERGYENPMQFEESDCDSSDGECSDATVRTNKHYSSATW
Chain of Serine/threonine-protein kinase 17A (Homo sapiens) (Q9UEE5 whole entry, canonical isoform): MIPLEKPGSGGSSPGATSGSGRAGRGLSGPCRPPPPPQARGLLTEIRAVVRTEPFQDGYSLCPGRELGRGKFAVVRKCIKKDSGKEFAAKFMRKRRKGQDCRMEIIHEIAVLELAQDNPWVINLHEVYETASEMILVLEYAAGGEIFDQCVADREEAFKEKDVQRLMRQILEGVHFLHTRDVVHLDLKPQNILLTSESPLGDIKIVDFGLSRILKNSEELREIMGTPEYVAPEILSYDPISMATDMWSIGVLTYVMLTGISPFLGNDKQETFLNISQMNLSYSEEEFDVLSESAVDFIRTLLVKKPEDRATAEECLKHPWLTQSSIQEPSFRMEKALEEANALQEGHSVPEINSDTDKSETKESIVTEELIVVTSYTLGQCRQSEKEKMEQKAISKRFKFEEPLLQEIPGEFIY
Chain of Vascular endothelial growth factor receptor 1 (Homo sapiens) (P17948 whole entry): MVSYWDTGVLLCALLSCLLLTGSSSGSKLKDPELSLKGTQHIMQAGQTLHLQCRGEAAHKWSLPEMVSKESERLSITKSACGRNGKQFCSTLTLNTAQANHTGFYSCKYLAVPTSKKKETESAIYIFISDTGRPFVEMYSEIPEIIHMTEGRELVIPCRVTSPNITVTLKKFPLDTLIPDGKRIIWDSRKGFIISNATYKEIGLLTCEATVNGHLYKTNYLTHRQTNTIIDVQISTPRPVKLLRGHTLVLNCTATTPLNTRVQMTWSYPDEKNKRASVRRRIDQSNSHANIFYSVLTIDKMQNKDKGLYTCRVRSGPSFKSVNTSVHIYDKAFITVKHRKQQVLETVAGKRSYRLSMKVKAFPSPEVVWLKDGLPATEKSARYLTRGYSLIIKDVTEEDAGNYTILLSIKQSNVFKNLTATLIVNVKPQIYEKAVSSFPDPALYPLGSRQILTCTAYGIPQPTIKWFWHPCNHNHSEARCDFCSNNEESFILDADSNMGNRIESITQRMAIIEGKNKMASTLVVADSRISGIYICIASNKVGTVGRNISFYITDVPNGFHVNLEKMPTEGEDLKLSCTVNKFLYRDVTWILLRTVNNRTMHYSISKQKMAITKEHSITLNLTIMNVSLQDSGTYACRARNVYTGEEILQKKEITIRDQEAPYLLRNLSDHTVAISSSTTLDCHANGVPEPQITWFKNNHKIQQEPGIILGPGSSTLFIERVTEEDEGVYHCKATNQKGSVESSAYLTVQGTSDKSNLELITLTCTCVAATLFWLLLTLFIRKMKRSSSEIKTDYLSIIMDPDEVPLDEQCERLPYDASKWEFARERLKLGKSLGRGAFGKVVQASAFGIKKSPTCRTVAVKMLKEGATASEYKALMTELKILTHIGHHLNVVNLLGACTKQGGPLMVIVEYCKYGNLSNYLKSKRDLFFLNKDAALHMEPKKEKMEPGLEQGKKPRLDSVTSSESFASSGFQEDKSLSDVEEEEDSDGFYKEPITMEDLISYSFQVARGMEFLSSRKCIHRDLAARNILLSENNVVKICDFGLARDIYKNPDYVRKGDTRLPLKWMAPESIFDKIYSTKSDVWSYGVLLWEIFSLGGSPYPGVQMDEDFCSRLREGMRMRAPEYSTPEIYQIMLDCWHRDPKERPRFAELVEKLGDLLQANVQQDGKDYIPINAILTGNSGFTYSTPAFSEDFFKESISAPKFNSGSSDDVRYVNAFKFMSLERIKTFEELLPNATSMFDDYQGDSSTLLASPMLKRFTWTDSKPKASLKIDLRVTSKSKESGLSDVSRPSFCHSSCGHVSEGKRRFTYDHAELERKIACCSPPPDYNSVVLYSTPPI
Chain of Ribosomal protein S6 kinase alpha-2 (Homo sapiens) (Q15349 whole entry): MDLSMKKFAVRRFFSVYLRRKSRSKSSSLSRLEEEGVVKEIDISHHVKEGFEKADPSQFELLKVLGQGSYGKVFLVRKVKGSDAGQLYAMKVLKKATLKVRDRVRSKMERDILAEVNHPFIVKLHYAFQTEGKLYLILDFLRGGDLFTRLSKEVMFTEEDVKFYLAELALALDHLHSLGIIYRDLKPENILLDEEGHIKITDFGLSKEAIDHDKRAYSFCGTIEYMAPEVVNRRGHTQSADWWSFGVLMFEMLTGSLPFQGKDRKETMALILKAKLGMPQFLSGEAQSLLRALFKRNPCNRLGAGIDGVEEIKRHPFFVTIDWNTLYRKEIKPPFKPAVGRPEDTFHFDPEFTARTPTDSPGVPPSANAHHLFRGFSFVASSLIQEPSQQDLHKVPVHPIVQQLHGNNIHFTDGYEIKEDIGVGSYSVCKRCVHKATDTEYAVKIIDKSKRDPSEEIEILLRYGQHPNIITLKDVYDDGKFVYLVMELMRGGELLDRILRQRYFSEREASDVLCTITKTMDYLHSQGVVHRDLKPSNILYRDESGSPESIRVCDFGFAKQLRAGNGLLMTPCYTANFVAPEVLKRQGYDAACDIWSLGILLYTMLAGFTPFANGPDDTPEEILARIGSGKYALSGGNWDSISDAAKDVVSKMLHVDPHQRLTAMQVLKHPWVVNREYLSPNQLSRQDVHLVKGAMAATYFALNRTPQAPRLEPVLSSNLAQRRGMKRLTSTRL
Chain of Mitogen-activated protein kinase kinase kinase kinase 5 (Homo sapiens) (Q9Y4K4 whole entry, looked up): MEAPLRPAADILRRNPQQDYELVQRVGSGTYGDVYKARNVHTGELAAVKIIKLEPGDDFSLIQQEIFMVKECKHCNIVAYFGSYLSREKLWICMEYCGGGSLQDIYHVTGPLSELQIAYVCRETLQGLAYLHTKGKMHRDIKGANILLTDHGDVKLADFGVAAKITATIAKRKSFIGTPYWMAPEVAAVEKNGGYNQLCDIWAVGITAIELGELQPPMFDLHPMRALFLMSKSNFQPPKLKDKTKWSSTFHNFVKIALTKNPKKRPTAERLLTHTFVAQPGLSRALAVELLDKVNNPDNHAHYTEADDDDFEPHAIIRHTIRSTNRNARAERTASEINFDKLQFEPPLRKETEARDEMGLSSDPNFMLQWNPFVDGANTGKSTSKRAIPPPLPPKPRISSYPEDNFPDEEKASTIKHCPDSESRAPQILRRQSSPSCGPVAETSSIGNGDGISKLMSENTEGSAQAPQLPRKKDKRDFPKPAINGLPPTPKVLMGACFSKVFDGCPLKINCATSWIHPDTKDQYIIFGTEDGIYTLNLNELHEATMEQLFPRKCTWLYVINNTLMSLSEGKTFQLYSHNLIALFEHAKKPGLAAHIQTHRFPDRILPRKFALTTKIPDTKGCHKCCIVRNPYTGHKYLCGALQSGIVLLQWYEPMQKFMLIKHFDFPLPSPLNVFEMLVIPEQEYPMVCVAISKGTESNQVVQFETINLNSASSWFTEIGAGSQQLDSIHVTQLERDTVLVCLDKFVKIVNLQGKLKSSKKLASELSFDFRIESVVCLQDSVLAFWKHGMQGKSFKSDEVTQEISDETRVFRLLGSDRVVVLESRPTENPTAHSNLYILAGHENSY
Chain of Calcium/calmodulin-dependent protein kinase type 1D (Homo sapiens) (Q8IU85 whole entry, looked up, canonical isoform): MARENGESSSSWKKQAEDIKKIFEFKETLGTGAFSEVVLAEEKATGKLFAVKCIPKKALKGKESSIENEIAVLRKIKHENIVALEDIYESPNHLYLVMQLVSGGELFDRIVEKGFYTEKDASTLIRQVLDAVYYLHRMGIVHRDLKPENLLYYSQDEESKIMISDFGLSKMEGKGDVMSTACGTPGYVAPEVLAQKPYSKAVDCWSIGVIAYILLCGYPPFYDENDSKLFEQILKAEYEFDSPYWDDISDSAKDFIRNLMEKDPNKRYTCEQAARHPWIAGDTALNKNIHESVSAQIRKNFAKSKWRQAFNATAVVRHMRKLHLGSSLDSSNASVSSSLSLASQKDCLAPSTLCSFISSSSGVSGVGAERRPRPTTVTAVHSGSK
Chain of Mitogen-activated protein kinase 13 (Homo sapiens) (O15264 whole entry): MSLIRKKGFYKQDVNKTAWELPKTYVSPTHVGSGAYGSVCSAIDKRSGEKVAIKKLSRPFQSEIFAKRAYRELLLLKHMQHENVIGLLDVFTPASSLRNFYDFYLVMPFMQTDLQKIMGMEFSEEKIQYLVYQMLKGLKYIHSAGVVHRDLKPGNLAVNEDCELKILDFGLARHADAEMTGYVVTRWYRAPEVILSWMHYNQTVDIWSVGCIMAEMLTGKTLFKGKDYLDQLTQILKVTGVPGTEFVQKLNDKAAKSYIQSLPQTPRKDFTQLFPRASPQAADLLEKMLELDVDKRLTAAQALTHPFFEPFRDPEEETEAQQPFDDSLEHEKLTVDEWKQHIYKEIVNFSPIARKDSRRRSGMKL

CCC(=O)N[C@H]1CC[C@@H](C(=O)N(C)c2ccc(-c3nc4ccccc4o3)cc2)C1 [BI 99179]
inactive: residual activity [1] 100% | residual activity [2] 86% | residual activity [3] 78% | residual activity [4] 98% | residual activity [5] 94% | residual activity [6] 100% | residual activity [7] 82% | residual activity [8] 100% | residual activity [9] 100% | residual activity [10] 97% | residual activity [11] 93% | residual activity [12] 98% | residual activity [13] 77% | residual activity [14] 100% | residual activity [15] 82% | residual activity [16] 100% | residual activity [17] 100% | residual activity [18] 87% | residual activity [19] 91% | residual activity [20] 100% | residual activity [21] 100% | residual activity [22] 98% | residual activity [23] 100% | residual activity [24] 85% | residual activity [25] 100% | residual activity [26] 100% | residual activity [27] 99% | residual activity [28] 57% | residual activity [29] 99% | residual activity [30] 77% | residual activity [31] 85% | residual activity [32] 82% | inhibition [33] -8.17% | residual activity [34] 63% | residual activity [35] 76% | residual activity [36] 85% | residual activity [37] 100% | residual activity [38] 100% | residual activity [39] 89% | residual activity [40] 91% | residual activity [41] 100% | residual activity [42] 100% | residual activity [43] 100% | residual activity [44] 100% | residual activity [45] 91%

CCC(=O)N[C@@H]1CC[C@H](C(=O)N(C)c2ccc(-c3nc4ccccc4o3)cc2)C1 [BI 99990]
inactive: residual activity [1] 100% | residual activity [2] 89% | residual activity [3] 100% | residual activity [4] 100% | residual activity [5] 88% | residual activity [6] 100% | residual activity [7] 100% | residual activity [8] 75% | residual activity [9] 100% | residual activity [10] 100% | residual activity [11] 100% | residual activity [12] 100% | residual activity [13] 100% | residual activity [14] 100% | residual activity [15] 83% | residual activity [16] 91% | residual activity [17] 96% | residual activity [18] 100% | residual activity [19] 78% | residual activity [20] 100% | residual activity [21] 100% | residual activity [22] 100% | residual activity [23] 100% | residual activity [24] 100% | residual activity [25] 100% | residual activity [26] 100% | residual activity [27] 100% | residual activity [28] 100% | residual activity [29] 86% | residual activity [30] 88% | residual activity [31] 79% | residual activity [32] 100% | inhibition [33] 1.65% | residual activity [34] 98% | residual activity [35] 100% | residual activity [36] 100% | residual activity [37] 100% | residual activity [38] 100% | residual activity [39] 100% | residual activity [40] 100% | residual activity [41] 100% | residual activity [42] 85% | residual activity [43] 83% | residual activity [44] 100% | residual activity [45] 86%
